# Results: PubChem BioAssay (NCI)
#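 A five-concentration, 48-hour dose response in 96-well plates underlies each endpoint, interpolated linearly between surrounding concentrations. At the GI50, growth is halved. Definition used: TGI = concentration required for complete inhibition of growth.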
# What was measured:
# Experiment in all cases: NCI anticancer screen, dose series, 48 h
# HOP-18 NSCLC = tested on: HOP-18 NSCLC
# LXFL 529 NSCLC = tested on: LXFL 529 NSCLC
# KM20L2 colon = tested on: KM20L2 colon
# DMS 273 small cell lung = tested on: DMS 273 small cell lung
# DLD-1 colon = tested on: DLD-1 colon
# M19-MEL melanoma = tested on: M19-MEL melanoma
# DMS 114 small cell lung = tested on: DMS 114 small cell lung
# XF 498 CNS = tested on: XF 498 CNS
# MDA-MB-435 = tested on: MDA-MB-435
# MDA-MB-231 breast = tested on: MDA-MB-231 breast
# DU-145 prostate = tested on: DU-145 prostate
# T-47D breast = tested on: T-47D breast
# NCI/ADR-RES ovarian = tested on: NCI/ADR-RES ovarian
# PC-3 prostate = tested on: PC-3 prostate
Compound,TGI (HOP-18 NSCLC) [µM],TGI (LXFL 529 NSCLC) [µM],TGI (KM20L2 colon) [µM],TGI (DMS 273 small cell lung) [µM],TGI (DLD-1 colon) [µM],TGI (M19-MEL melanoma) [µM],TGI (DMS 114 small cell lung) [µM],TGI (XF 498 CNS) [µM],GI50 (MDA-MB-435) [µM],TGI (MDA-MB-435) [µM],GI50 (MDA-MB-231 breast) [µM],TGI (MDA-MB-231 breast) [µM],GI50 (DU-145 prostate) [µM],TGI (DU-145 prostate) [µM],TGI (T-47D breast) [µM],GI50 (NCI/ADR-RES ovarian) [µM],TGI (NCI/ADR-RES ovarian) [µM],GI50 (PC-3 prostate) [µM],TGI (PC-3 prostate) [µM],GI50 (T-47D breast) [µM]
C1=C2/CC[C@H](Sc3ccccc3)[C@H]2C2(CCCCC/1)OCCO2,> 100,> 100,45.3,> 100,> 100,67,–,–,–,–,–,–,–,–,–,–,–,–,–,–
CCOC(=O)NC(=O)c1cn(CCCCCCOC(=O)NCCCCCCNC(=O)OCCCCCCn2cc(C(=O)NC(=O)OCC)c(=O)[nH]c2=O)c(=O)[nH]c1=O,> 100,> 100,> 100,> 100,> 100,> 100,> 100,–,–,–,–,–,–,–,–,–,–,–,–,–
O=CN/C=C/c1ccc(O)c(O)c1,–,> 100,> 100,> 100,> 100,> 100,> 100,> 100,–,–,–,–,–,–,–,–,–,–,–,–
CCOC(=O)NC(=O)c1cn(CCN2CCN(c3ncnc4nc[nH]c34)CC2)c(=O)[nH]c1=O,> 100,> 100,> 100,–,> 100,> 100,> 100,> 100,–,–,–,–,–,–,–,–,–,–,–,–
Cc1ccc(N2C(=O)C3C=CC(n4[nH]c(=O)n(Cc5ccccc5)c4=O)CC3C2=O)cc1 (stereo not given),> 100,> 100,> 100,> 100,> 100,> 100,> 100,> 100,–,–,–,–,–,–,–,–,–,–,–,–
Cc1cccc(C(C)C)c1NC(=O)CC1C(=O)Nc2ccccc2S1(=O)=O (stereo not given),70.8,35.5,51.5,20.5,> 45.6,> 57.4,45.5,> 59.9,–,–,–,–,–,–,–,–,–,–,–,–
C[C@]12CCC3[C@@H](CC[C@@H]4c5nonc5CC[C@]34C)C1C/C(=N/O)C2=O (stereo not given in full),> 100,> 100,> 100,> 100,–,> 100,> 100,40.4,–,–,–,–,–,–,–,–,–,–,–,–
COc1ccc2ccccc2c1C1OC(=O)c2ccccc21 (stereo not given),> 100,–,> 100,> 100,> 100,> 100,> 100,–,–,–,–,–,–,–,–,–,–,–,–,–
CN(C)c1ccc2c(c1)OC(N)=C(C#N)C2c1ccc2c(c1)CCO2 (stereo not given),–,–,–,–,–,–,–,–,< 0.0156,0.095,0.419,28.6,0.229,> 100,56.4,< 0.0279,> 22.1,0.0664,> 100,–
CC(C)c1cccc2sc(NC(=O)C(=O)C(C#N)c3cccc4ccccc34)nc12 (stereo not given),> 100,> 100,> 100,> 100,> 100,> 100,> 100,–,–,–,–,–,–,–,–,–,–,–,–,–
O=C(COc1ccc(/C=C2\Oc3ccccc3C2=O)cc1)Nc1nc2c(s1)CCCC2,–,–,–,–,–,–,–,–,3.98,> 100,0.709,6.38,0.417,27.4,> 100,2.19,> 59.1,16.8,> 100,48.4
C/C(CC(=O)Nc1ccc(Cl)cc1)=N\NC(N)=S,–,> 100,> 100,> 100,> 100,> 100,> 100,> 100,–,–,–,–,–,–,–,–,–,–,–,–
COc1ccc(/C=N/N=C(\N)NO)c(OC)c1,> 100,86.3,–,–,> 100,> 100,> 100,–,–,–,–,–,–,–,–,–,–,–,–,–
O=S1(=O)OCCOS(=O)(=O)C1Cc1ccccc1,50,–,> 100,> 100,> 100,> 100,> 100,> 100,–,–,–,–,–,–,–,–,–,–,–,–
CN1c2ccccc2N(C)C23N(C)c4ccccc4N(C)C12N(C)c1ccccc1N3C (stereo not given),–,–,> 100,> 100,> 100,> 100,> 100,> 100,–,–,–,–,–,–,–,–,–,–,–,–
Cc1c2c(nn1C)CSCc1cc(n(C)n1)CSc1cc(c3ccccc3c1)OCCCc1c(C(=O)O)n(C)c3c-2c(Cl)ccc13,–,–,–,–,–,–,–,–,2.45,14.3,5.32,18.2,4.52,15.9,15.7,14.2,30,3.42,13.2,3.88
COC(=O)c1cc(Cl)ccc1NC(=O)c1ccc([N+](=O)[O-])cc1,–,> 100,76.8,77.3,> 100,> 100,> 100,35.9,–,–,–,–,–,–,–,–,–,–,–,–
CCOC(=O)C(=Cc1cccnc1C)C(=O)OCC,21.7,20.2,10.7,14,47.4,22.3,31.3,25.6,–,–,–,–,–,–,–,–,–,–,–,–
O=C(Nc1ccc(Cl)c(Cl)c1)O/N=C\c1c(Cl)ccc([N+](=O)[O-])c1Cl,–,–,–,–,–,–,–,–,1.9,4.43,1.56,3.41,1.73,3.23,3.54,4.33,17.2,1.58,3.74,0.778
